Laboratory results from patent US7872052B2, “Use of heterocyclic compounds as SCCE inhibitors” (Arexis AB, priority 2003, dated 2011).

Biological target: T1, Recombinant active human SCCE (Homo sapiens, UniProt P49862)
T1 construct: made in house; host or cells: murine C127 cells transfected with a BPV vector (murine MT promoter)
Assay: SCCE Inhibitor Test (chromogenic substrate S-2586, absorbance at 405 nm)
Assay type: biochemical
Details: for IC50: 10 min preincubation, 1 mM S-2586, 60 min, 37° C, pH 7.2; for remaining activity at 10 µM / remaining activity at 1 µM / remaining activity at 5 µM: 1 h; for remaining activity at 1 µM: 1 μM compound; for remaining activity at 5 µM: 5 μM compound
Procedure: Recombinant active human SCCE was produced essentially as described in WO 95/00651. The cDNA encoding human SCCE was introduced into a BPV vector under the control of the murine MT promoter and expressed in transfected C127 cells. The produced SCCE was purified and activated using immobilized bovine trypsin.
SCCE activity was determined using the chromogenic substrate S-2586 (MeO-Suc-Arg-Pro-Tyr-pNA) (Chromogenix, Mölndal, Sweden) by measurement of the change in absorbance at 405 nm essentially as described in WO 95/00651. Inhibitors were dissolved in DMSO and added to the reaction mixture (10 mM sodium phosphate, pH 7.2, 0.5 M NaCl, 2.5 μg/ml SCCE) at appropriate concentrations followed by incubation for 10 min before the start of the enzymatic reaction by subsequent addition of the substrate S-2586 to a final concentration of 1 mM. The change in absorbance at 405 nm after 60 min was recorded and used as a measure of SCCE activity. The assay temperature was 37° C. […] The IC50 values were used to identify compounds as SCCE inhibitors of the invention.

T1 sequence (P49862 30-253): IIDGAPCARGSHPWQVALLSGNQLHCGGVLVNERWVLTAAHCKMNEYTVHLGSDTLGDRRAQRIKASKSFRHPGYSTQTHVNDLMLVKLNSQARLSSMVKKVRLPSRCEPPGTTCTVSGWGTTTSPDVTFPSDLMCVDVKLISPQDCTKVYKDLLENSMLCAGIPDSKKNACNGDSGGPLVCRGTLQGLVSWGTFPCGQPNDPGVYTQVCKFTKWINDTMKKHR

| SMILES | IC50 [nM] | remaining activity at 10 µM (10 μM compound) [%] | remaining activity at 1 µM [%] | remaining activity at 5 µM [%] | % SCCE activity (10 μM compound) [%] |
| --- | --- | --- | --- | --- | --- |
| O=c1oc(-c2ccccc2)nc2ccccc12 [Compound I-1, 2-Phenyl-benzo[d][1,3]oxazin-4-one] | 2000 | 27 | – | – | – |
| O=c1oc(-c2ccc([N+](=O)[O-])cc2Cl)nc2cc(Cl)ccc12 [Compound I-2, 7-Chloro-2-(2-chloro-4-nitro-phenyl)-benzo[d][1,3]oxazin-4-one] | 100 | – | 15 | 0 | – |
| O=c1oc(-c2cccs2)nc2cc(Cl)ccc12 [Compound I-4, 7-Chloro-2-thiophen-2-yl-benzo[d][1,3]oxazin-4-one] | 250 | – | 22 | 5 | – |
| COc1cc2nc(-c3ccc([N+](=O)[O-])cc3Cl)oc(=O)c2cc1OC [Compound I-5, 2-(2-Chloro-4-nitro-phenyl)-6,7-dimethoxy-benzo[d][1,3]oxazin-4-one] | 500 | 9 | – | – | – |
| O=c1oc(-c2cc([N+](=O)[O-])ccc2Cl)nc2ccccc12 [Compound I-6, 2-(2-Chloro-5-nitro-phenyl)-benzo[d][1,3]oxazin-4-one] | 500 | 22 | – | – | – |
| CN(C)c1nc2cc(Cl)cc(Cl)c2c(=O)o1 [Compound I-7] | 2000 | – | – | – | 7 |
| O=c1oc(-c2ccncc2)nc2ccccc12 [Compound I-8, 2-Pyridin-4-yl-benzo[d][1,3]oxazin-4-one] | 5000 | 24 | – | – | – |
| O=c1oc(-c2cccs2)nc2ccccc12 [Compound I-9, 2-Thiophen-2-yl-benzo[d][1,3]oxazin-4-one] | 5000 | 23 | – | – | – |
| O=c1oc(-c2ccccc2O)nc2ccccc12 [Compound I-10, 2-(2-Hydroxy-phenyl)-benzo[d][1,3]oxazin-4-one] | 5000 | 32 | 71 | 47 | – |
| COc1cc2nc(-c3ccccc3F)oc(=O)c2cc1OC [Compound I-11, 2-(2-Fluoro-phenyl)-6,7-dimethoxy-benzo[d][1,3]oxazin-4-one] | 700 | – | 39 | 8 | – |
| CCc1ccc(-c2nc3cc(Cl)ccc3c(=O)o2)cc1 [Compound I-12, 7-Chloro-2-(4-ethyl-phenyl)benzo[d][1,3]oxazin-4-one] | 2000 | – | 33 | 15 | – |
| Cc1cc(-c2nc3cc(Cl)ccc3c(=O)o2)ccc1[N+](=O)[O-] [Compound I-13, 7-Chloro-2-(3-methyl-4-nitro-phenyl)-benzo[d][1,3]oxazin-4-one] | 2000 | – | 56 | 36 | – |
| COc1cc2nc(-c3ccc(NC(C)=O)cc3)oc(=O)c2cc1OC [Compound I-14, N-[4-(6,7-Dimethoxy-4-oxo-4H-benzo[d][1,3]oxazin-2-yl)-phenyl]-acetamide] | 5000 | 52 | – | – | – |
| CC(=O)Oc1ccc(-c2nc3ccccc3c(=O)o2)cc1 [Compound I-15, Acetic acid 4-(4-oxo-4H-benzo[d][1,3]oxazin-2-yl)-phenyl ester] | 5000 | – | 52 | 22 | – |
| COc1cc2nc(-c3ccccc3Cl)oc(=O)c2cc1OC [Compound I-16, 2-(2-Chloro-phenyl)-6,7-dimethoxy-benzo[d][1,3]oxazin-4-one] | 170 | 3 | 15 | – | – |
| O=c1nc(-c2cccs2)oc2ccc(Cl)cc12 [Compound I-17, 6-Chloro-2-thiophen-2-yl-benzo[e][1,3]oxazin-4-one] | 320 | – | 18 | 4 | – |
| O=c1nc(-c2ccco2)oc2ccc(Cl)cc12 [Compound I-18, 6-Chloro-2-furan-2-yl-benzo[e][1,3]oxazin-4-one] | 600 | – | 26 | 7 | – |
| O=c1nc(-c2ccccc2Cl)oc2ccccc12 [Compound I-19, 2-(2-Chlorophenyl)-benzo[e][1,3]oxazin-4-one] | 4000 | – | 76 | 44 | – |
| O=c1nc(-c2cccs2)oc2ccccc12 [Compound I-20, 2-Thiophen-2-yl-benzo[e][1,3]oxazin-4-one] | – | – | 54 | 16 | – |
| O=c1nc(-c2ccco2)oc2ccccc12 [Compound I-21, 2-Furan-2-yl-benzo[e][1,3]oxazin-4-one] | – | – | 47 | 16 | – |

| SMILES | IC50 [nM] | remaining activity at 10 µM (10 μM compound) [%] | remaining activity at 1 µM [%] | remaining activity at 5 µM [%] | % SCCE activity (10 μM compound) [%] |
| --- | --- | --- | --- | --- | --- |
| CCc1cc2c(=O)oc(-c3ccccc3F)nc2s1 [II-1, 6-Ethyl-2-(2-fluoro-phenyl)-thieno[2,3-d][1,3]oxazin-4-one] | 70 | – | 0 | 0 | – |
| Cc1cc2c(=O)oc(-c3cccc4ccccc34)nc2s1 [II-2, 6-Methyl-2-naphtalen-1-yl-thieno[2,3-d][1,3]oxazin-4-one] | 50 | 4 | – | – | – |
| CCc1cc2c(=O)oc(-c3ccccc3C)nc2s1 [II-3, 6-Ethyl-2-o-tolyl-thieno[2,3-d][1,3]oxazin-4-one] | 150 | – | 3 | 0 | – |
| CCc1cc2c(=O)oc(-c3ccc(F)cc3)nc2s1 [II-4, 6-Ethyl-2-(4-fluoro-phenyl)-thieno[2,3-d][1,3]oxazin-4-one] | 300 | – | 15 | 8 | – |
| O=c1oc(-c2ccccc2Cl)nc2ccsc12 [II-5, 2-(2-chloro-phenyl)-4H-thieno[3,2-d][1,3]oxazin-4-one] | 500 | 1 | – | – | – |
| O=c1oc(-c2ccccc2)nc2ccsc12 [II-6, 2-phenyl-4H-thieno[3,2-d][1,3]oxazin-4-one] | 1000 | 9 | – | – | – |
| Cc1sc2nc(-c3ccco3)oc(=O)c2c1C [II-7, 2-Furan-2-yl-5,6-dimethyl-thieno[2,3-d][1,3]oxazin-4-one] | 1500 | – | 50 | 13 | – |
| O=c1oc(-c2ccc(F)cc2)nc2ccsc12 [II-8, 2-(4-fluoro-phenyl)-4H-thieno[3,2-d][1,3]oxazin-4-one] | 1000 | 10 | – | – | – |
| CCc1cc2c(=O)oc(-c3ccc(Br)cc3)nc2s1 [II-9, 2-(4-Bromo-phenyl)-6-ethyl-thieno[2,3-d][1,3]oxazin-4-one] | 1000 | – | 58 | 37 | – |
| O=c1oc(-c2ccccc2Cl)nc2sc3c(c12)CCC3 [II-10, 6-(2-Chloro-phenyl)-2,3-dihydro-1H-5-oxa-8-thia-7-aza-cyclopenta[a]indene-4-one] | 20 | – | 10 | 2 | – |
| O=c1oc(-c2ccco2)nc2sc3c(c12)CCC3 [II-11, 6-Furan-2-yl-2,3-dihydro-1H-5-oxa-8-thia-7-aza-cyclopenta[a]inden-4-one] | 200 | – | 8 | 8 | – |
| O=c1oc(-c2ccccc2)nc2sc3c(c12)CCC3 [II-12, 6-Phenyl-2,3-dihydro-1H-5-oxa-8-thia-7-aza-cyclopenta[a]inden-4-one] | 200 | – | 19 | 16 | – |
| O=c1oc(-c2ccc(F)cc2)nc2sc3c(c12)CCC3 [II-13, 6-(4-Fluoro-phenyl)-2,3-dihydro-1H-5-oxa-8-thia-7-aza-cyclopenta[a]inden-4-one] | 300 | – | 37 | 14 | – |
| O=c1oc(-c2cccs2)nc2sc3c(c12)CCC3 [II-14, 6-Thiophen-2-yl-2,3-dihydro-1H-5-oxo-8-thia-7-aza-cyclopenta[a]inden-4-one] | 300 | – | 37 | 21 | – |
| O=c1oc(-c2ccccc2F)nc2sc3c(c12)CCCC3 [II-15, 2-(2-Fluoro-phenyl)-5,6,7,8-tetrahydro-3-oxa-9-thia-1-aza-fluoren-4-one] | 70 | – | 7 | 2.4 | – |
| COc1ccccc1-c1nc2sc3c(c2c(=O)o1)CCCC3 [II-16, 2-(2-Methoxy-phenyl)-5,6,7,8-tetrahydro-3-oxa-9-thia-1-aza-fluoren-4-one] | 70 | – | 2.7 | 0 | – |
| O=c1oc(-c2ccccc2)nc2sc3c(c12)CCCC3 [II-17, 2-Phenyl-5,6,7,8-tetrahydro-3-oxa-9-thia-1-aza-fluoren-4-one] | 700 | – | 45 | 33 | – |
| O=c1oc(-c2cccc3ccccc23)nc2sc3c(c12)CCCC3 [II-18, 2-Naphtalen-1-yl-5,6,7,8-tetrahydro-3-oxa-9-thia-1-aza-fluoren-4-one] | 1000 | – | 38 | 41 | – |
| O=c1oc(-c2cccs2)nc2sc3c(c12)CCCC3 [II-19, 2-Thiophen-2-yl-5,6,7,8-tetrahydro-3-oxa-9-thia-1-aza-fluoren-4one] | 1000 | – | 52 | 41 | – |
